# Patent publication US10428051B2 (priority 2015, dated 2019)
# pKi: −log10 of the molar value.
# Target: human σ1 receptor (Homo sapiens, UniProt Q99720)
# Assay: biochemical
# Assay type: binding
# Parameters: μ and σ1 dual (binding to the σ1 receptor and the μ-opioid receptor expressed as Ki): key to the marks not given beside the values
# Conditions: not given
# human σ1 receptor, sequence (Q99720 whole entry): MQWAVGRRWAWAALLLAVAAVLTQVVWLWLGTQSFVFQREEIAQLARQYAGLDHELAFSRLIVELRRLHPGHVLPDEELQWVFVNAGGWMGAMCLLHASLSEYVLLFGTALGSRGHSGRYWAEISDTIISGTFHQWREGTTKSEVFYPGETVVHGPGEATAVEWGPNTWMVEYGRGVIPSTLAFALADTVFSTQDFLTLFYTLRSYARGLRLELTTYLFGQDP
Structure (SMILES),pKi,μ and σ1 dual (binding to the σ1 receptor and the μ-opioid receptor expressed as Ki)
"CCC(=O)N(CC1(N2CCN(Cc3ccccc3)CC2)CCOCC1)c1ccccc1Cl [Example 2, N-((4-(4-benzylpiperazin-1-yl)tetrahydro-2H-pyran-4-yl)methyl)-N-(2-chlorophenyl)propionamide]",> 7.00,–
"CCC(=O)N(CC1(N2CCN(Cc3ccccc3)CC2)CCOCC1)c1ccccc1OC [Example 3, N-((4-(4-benzylpiperazin-1-yl)tetrahydro-2H-pyran-4-yl)methyl)-N-(2-methoxyphenyl)propionamide]",> 7.00,–
"CCC(=O)N(CC1(N2CCN(Cc3ccccc3)CC2)CCOCC1)c1ccccc1F [Example 4, N-((4-(4-benzylpiperazin-1-yl)tetrahydro-2H-pyran-4-yl)methyl)-N-(2-fluorophenyl)propionamide]",> 7.00,–
"CCC(=O)N(CC1(N2CCN(Cc3ccccc3)CC2)CCOCC1)c1cccc(F)c1 [Example 5, N-((4-(4-benzylpiperazin-1-yl)tetrahydro-2H-pyran-4-yl)methyl)-N-(3-fluorophenyl)propionamide]",> 7.00,–
"CCC(=O)N(CC1(N2CCN(Cc3ccccc3)CC2)CCOCC1)c1ccc(F)cn1 [Example 6, N-((4-(4-benzylpiperazin-1-yl)tetrahydro-2H-pyran-4-yl)methyl)-N-(5-fluoropyridin-2-yl)propionamide]",> 6.30,–
"CCC(=O)N(CC1(N2CCN(Cc3ccccc3)CC2)CCOCC1)c1ccc(C(F)(F)F)cn1 [Example 7, N-((4-(4-benzylpiperazin-1-yl)tetrahydro-2H-pyran-4-yl)methyl)-N-(5-(trifluoromethyl)pyridin-2-yl)propionamide]",–,++
"CCC(=O)N(CC1(N2CCN(Cc3ccccc3)CC2)CCOCC1)c1cc(C(F)(F)F)ccn1 [Example 8, N-((4-(4-benzylpiperazin-1-yl)tetrahydro-2H-pyran-4-yl)methyl)-N-(4-(trifluoromethyl)pyridin-2-yl)propionamide]",> 6.30,–
"CCC(=O)N(CC1(N2CCN(Cc3ccccc3)CC2)CCOCC1)c1cncc(C(F)(F)F)c1 [Example 9, N-((4-(4-benzylpiperazin-1-yl)tetrahydro-2H-pyran-4-yl)methyl)-N-(5-(trifluoromethyl)pyridin-3-yl)propionamide]",–,++
"CCC(=O)N(CC1(N2CCN(Cc3ccccc3)CC2)CCOCC1)c1cncc(F)c1 [Example 10, N-((4-(4-benzylpiperazin-1-yl)tetrahydro-2H-pyran-4-yl)methyl)-N-(5-fluoropyridin-3-yl)propionamide]",> 6.30,–
"CCC(=O)N(CC1(N2CCN(Cc3ccccc3)CC2)CCOCC1)c1ccc(C(F)(F)F)nc1 [Example 11, N-((4-(4-benzylpiperazin-1-yl)tetrahydro-2H-pyran-4-yl)methyl)-N-(6-(trifluoromethyl)pyridin-3-yl)propionamide]",–,++
"CCC(=O)N(CC1(N2CCN(Cc3ccccc3)CC2)CCOCC1)c1ccncc1 [Example 12, N-((4-(4-benzylpiperazin-1-yl)tetrahydro-2H-pyran-4-yl)methyl)-N-(pyridin-4-yl)propionamide]",< 6.30,–
"CCC(=O)N(CC1(N2CCN(Cc3ccccc3)CC2)CCOCC1)C(C)c1ccccc1 (stereo not drawn) [Example 13, N-((4-(4-benzylpiperazin-1-yl)tetrahydro-2H-pyran-4-yl)methyl)-N-(1-phenylethyl)propionamide]",> 7.00,–
"CCC(=O)N(Cc1ccccc1)CC1(N2CCN(Cc3ccccc3)CC2)CCOCC1 [Example 14, N-benzyl-N-((4-(4-benzylpiperazin-1-yl)tetrahydro-2H-pyran-4-yl)methyl)propionamide]",–,++
"CCC(=O)N(CC(C)C)CC1(N2CCN(Cc3ccccc3)CC2)CCOCC1 [Example 15, N-((4-(4-benzylpiperazin-1-yl)tetrahydro-2H-pyran-4-yl)methyl)-N-isobutylpropionamide]",–,++
"CCC(=O)N(CC1(N2CCN(Cc3ccccc3)CC2)CCOC(C)(C)C1)c1ccccn1 (stereo not drawn) [Example 16, N-((4-(4-benzylpiperazin-1-yl)-2,2-dimethyltetrahydro-2H-pyran-4-yl)methyl)-N-(pyridin-2-yl)propionamide]",> 6.30,–
"CCC(=O)N(CC1(N2CCN(Cc3ccccc3)CC2)CCOC2(CCCC2)C1)c1ccccn1 (stereo not drawn) [Example 17, N-((9-(4-benzylpiperazin-1-yl)-6-oxaspiro[4.5]decan-9-yl)methyl)-N-(pyridin-2-yl)propionamide]",> 6.30,–
"CCC(=O)N(CC1(N2CCN(CCc3ccccc3)CC2)CCCCC1)c1ccccn1 [Example 21, N-((1-(4-phenethylpiperazin-1-yl)cyclohexyl)methyl)-N-(pyridin-2-yl)propionamide]",> 6.30,–

Structure (SMILES),pKi,μ and σ1 dual (binding to the σ1 receptor and the μ-opioid receptor expressed as Ki)
"CCC(=O)N(CC1(N2CCN(Cc3ccccc3)CC2)CC1)c1ccncc1 [Example 31, N-((1-(4-benzylpiperazin-1-yl)cyclopropyl)methyl)-N-(pyridin-4-yl)propionamide]",–,++
"CCC(=O)N(CC1(N2CCN(Cc3ccccc3)CC2)CC1)c1ccc(F)cn1 [Example 33, N-((1-(4-benzylpiperazin-1-yl)cyclopropyl)methyl)-N-(5-fluoropyridin-2-yl)propionamide]",> 6.30,–
"CCC(=O)N(CC1(N2CCN(Cc3ccccc3)CC2)CC1)c1cccnc1 [Example 36, N-((1-(4-benzylpiperazin-1-yl)cyclopropyl)methyl)-N-(pyridin-3-yl)propionamide]",> 6.30,–
"COCC(=O)N(CC1(N2CCN(Cc3ccccc3)CC2)CCOCC1)c1ccccc1 [Example 37, N-((4-(4-benzylpiperazin-1-yl)tetrahydro-2H-pyran-4-yl)methyl)-2-methoxy-N-phenylacetamide]",> 6.30,–
"O=C(c1cccs1)N(CC1(N2CCN(Cc3ccccc3)CC2)CCOCC1)c1ccccn1 [Example 38, N-((4-(4-benzylpiperazin-1-yl)tetrahydro-2H-pyran-4-yl)methyl)-N-(pyridin-2-yl)thiophene-2-carboxamide]",–,++
"COCC(=O)N(CC1(N2CCN(CC(C)C)CC2)CCOCC1)c1cccc(C(F)(F)F)n1 [Example 39, N-((4-(4-isobutylpiperazin-1-yl)tetrahydro-2H-pyran-4-yl)methyl)-2-methoxy-N-(6-(trifluoromethyl)pyridin-2-yl)acetamide]",–,++
"CC(=O)N(CC1(N2CCN(CC(C)C)CC2)CCOCC1)c1cccc(C(F)(F)F)n1 [Example 40, N-((4-(4-isobutylpiperazin-1-yl)tetrahydro-2H-pyran-4-yl)methyl)-N-(6-(trifluoromethyl)pyridin-2-yl)acetamide]",–,++
"CC(C)(CN(C(=O)c1ccco1)c1ccccc1)N1CCN(CCc2ccccc2)CC1 [Example 44, N-(2-methyl-2-(4-phenethylpiperazin-1-yl)propyl)-N-phenylfuran-2-carboxamide]",> 7.00,–
"O=C(c1cccs1)N(CC1(N2CCN(Cc3ccccc3)CC2)CC1)c1ccccn1 [Example 47, N-((1-(4-benzylpiperazin-1-yl)cyclopropyl)methyl)-N-(pyridin-2-yl)thiophene-2-carboxamide]",–,++
"CCNC(=O)N(CC(C)(C)N1CCN(Cc2ccccc2)CC1)c1ccccc1 [Example 48, 1-(2-(4-benzylpiperazin-1-yl)-2-methylpropyl)-3-ethyl-1-phenylurea]",–,++
"CCNC(=O)N(CC1(N2CCN(Cc3ccccc3)CC2)CCOCC1)c1ccccn1 [Example 49, 1-((4-(4-benzylpiperazin-1-yl)tetrahydro-2H-pyran-4-yl)methyl)-3-ethyl-1-(pyridin-2-yl)urea]",–,++
"CCNC(=O)N(CC1(N2CCN(CCc3ccccc3)CC2)CCCCC1)c1ccccc1 [Example 50, 3-ethyl-1-((1-(4-phenethylpiperazin-1-yl)cyclohexyl)methyl)-1-phenylurea]",> 6.30,–
"CCNC(=O)N(CC1(N2CCN(Cc3ccccc3)CC2)CC1)c1ccccc1 [Example 52, 1-((1-(4-benzylpiperazin-1-yl)cyclopropyl)methyl)-3-ethyl-1-phenylurea]",> 6.30,–
"CCC(=O)N(CC1(N2CCN(Cc3ccccc3)CC2)CCOCC1)c1ccccc1O [Example 54, N-((4-(4-benzylpiperazin-1-yl)tetrahydro-2H-pyran-4-yl)methyl)-N-(2-hydroxyphenyl)propionamide]",> 6.30,–
"CCC(=O)N(CC1(N2CCN(Cc3ccccc3)CC2)CCOCC1)c1ccccn1 [Example 56, N-((4-(4-benzylpiperazin-1-yl)tetrahydro-2H-pyran-4-yl)methyl)-N-(pyridin-2-yl)propionamide]",> 6.30,–
"CCC(=O)N(CC1(N2CCN(Cc3ccccc3)CC2)CCOCC1)c1cccc(C#N)c1 [Example 57, N-((4-(4-benzylpiperazin-1-yl)tetrahydro-2H-pyran-4-yl)methyl)-N-(3-cyanophenyl)propionamide]",–,++
"CCC(=O)N(CC1(N2CCN(Cc3ccccc3)CC2)CCOCC1)c1ncccc1C#N [Example 58, N-((4-(4-benzylpiperazin-1-yl)tetrahydro-2H-pyran-4-yl)methyl)-N-(3-cyanopyridin-2-yl)propionamide]",–,++

# Same assay, conditions: combined class for both Ki-σ1 (assay A1) and Ki-μ (assay A2); human receptors, radioligand binding; read-out: μ and σ1 dual (binding to the σ1 receptor and the μ-opioid receptor expressed as Ki)
row,Structure (SMILES),pKi
1,"CCOc1ccc(N(CC2(N3CCN(Cc4ccccc4)CC3)CCN(C)CC2)C(=O)CC)cc1 [Example 24, N-((4-(4-benzylpiperazin-1-yl)-1-methylpiperidin-4-yl)methyl)-N-(4-ethoxyphenyl)propionamide]",< 6.30
2,"CN1CCC(CN(C(=O)c2nccs2)c2ccccc2)(N2CCN(Cc3ccccc3)CC2)CC1 [Example 41, N-((4-(4-benzylpiperazin-1-yl)-1-methylpiperidin-4-yl)methyl)-N-phenylthiazole-2-carboxamide]",< 6.30
